For assay [1], the target named is T1, human QC (Homo sapiens, UniProt Q16769).
T1 construct: The cDNA of the mature QC starting with codon 38 was fused in frame with the plasmid encoded 6× histidine tag; 6xHis; made in house; host or cells: Pichia pastoris X33 (pPICZαB, secreted); also E. coli M15 (pQE-31)
Briefly: Qualitative substrate conversion (MALDI-TOF / fluorometric). The assay is classed as biochemical. Further details: key to substrate conversion, determined qualitatively: *: determined qualitatively by MALDI-TOF experiments. Conditions: for substrate conversion, determined qualitatively: Human QC, MALDI-TOF. The method, then: Matrix-assisted laser desorption/ionization mass spectrometry was carried out using the Hewlett-Packard G2025 LD-TOF System with a linear time of flight analyzer. […] Samples (5 μl) were mixed with equal volumes of the matrix solution. For matrix solution we used DHAP/DAHC, prepared by solving 30 mg 2′,6′-dihydroxyacetophenone (Aldrich) and 44 mg diammonium hydrogen citrate (Fluka) in 1 ml acetonitrile/0.1% TFA in water (1/1, v/v). A small volume (≈1 μl) of the matrix-analyte-mixture was transferred to a probe tip and immediately evaporated in a vacuum chamber (Hewlett-Packard G2024A sample prep accessory) to ensure rapid and homogeneous sample crystallization.
In order to further investigate the specificity and selectivity of the QCs, peptides were synthesized comprising either a modified N-terminal glutaminyl residue or a modified amino acid in the second position. […] Due to the cyclization of the glutaminyl residue or its analog, respectively, a mass difference of the substrate and the product of catalysis is detected. In cases of ammonia liberation of one mole per mole of substrate, the conversion was also analyzed quantitatively using the spectrophotometric assay.

Assay [2] deals with T1, human QC. The assay can be described thus: QC inhibitor assay (fluorometric, H-Gln-AMC / H-Gln-βNA, pyroglutamyl aminopeptidase coupled). The assay is classed as biochemical.
The target of assay [3] is mammalian QC (Bos taurus, UniProt Q28120). Conditions: cited from earlier work.
Assay [4] concerns the target T1, human QC. Conditions: cited from earlier work.
Assay [5] concerns the target T1, human QC. The assay can be described thus: Continuous spectrophotometric QC assay (glutamate dehydrogenase coupled), substrate kinetics.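 As to all read-outs here: initial rates read on a microplate reader at 30 °C, with enzyme activity quantified against an ammonia calibration curve under the same assay conditions.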 The format is biochemical. As to conditions: for Ki* (mM): for substrate inhibition.
Description: The initial velocities were evaluated and the enzymatic activity was determined from a standard curve of ammonia under assay conditions. All samples were measured at 30° C., using either the [sequence]luor Plus or the Sunrise (both from TECAN) reader for microplates. Kinetic data was evaluated using GraFit software.
Assay [6] concerns the target T1, human QC. Briefly: Long-term Glu1-cyclization of Aβ-derived peptides by recombinant human QC, MALDI-TOF. The assay is classed as biochemical. As to conditions: pH 5.2 and 6.5. The method, then: For long-term testing of Glu^1-cyclization, Aβ-derived peptides were incubated in 100 μl 0.1 M sodium acetate buffer, pH 5.2 or 0.1 M Bis-Tris buffer, pH 6.5 at 30° C. Peptides were applied in 0.5 mM [Aβ3-11a] or 0.15 mM [Aβ3-21a] concentrations, and 0.2 U QC was added all 24 hours. In case of Aβ3-21a, the assays contained 1% DMSO. At different times, samples were removed from the assay tube, peptides extracted using ZipTips (Millipore) according to the manufacturer's recommendations, mixed with matrix solution (1:1 v/v) and subsequently the mass spectra recorded. Negative controls did either contain no QC or heat deactivated enzyme.
The QC-catalyzed formation of [pGlu^3]Aβ3-11a and [pGlu^3]Aβ3-21a was investigated at pH 5.2 and 6.5, respectively. If the QC-inhibitor benzimidazole was added to the solution before starting the assay by addition of QC, substrate conversion resulting in [pGlu^3]Aβ3-11a or [pGlu^3]Aβ3-21a was suppressed (FIGS. 15E and F). If QC was boiled before addition, formation of the pGlu-peptides was negligible (FIGS. 15A and B).

The mark [7] stands for this setting: Human QC, 0.05M Tris-HCl, pH 8.0.
Setting [8] is: Human QC, 0.05M Tris-HCl, pH 8.0, 0.5 M KCl.
The mark [9] stands for this setting: recombinant human QC, absence of DMSO.
Setting [10] is: recombinant human QC, buffer containing 1% DMSO.

Like-named read-outs stand apart in the source and are kept apart here. Bridge positions count the residues as written; N and C are the ends. Ends that are not written are not given here. Peptide text beside a SMILES is read from it. Gln(NMe) = glutamine with N-methylated side-chain amide

We go through 44 molecules from patent US8809010B2, “Method for prophylactic treatment of alzheimer's disease using inhibitors of glutaminyl cyclase and glutamate cyclases” (Probiodrug AG, priority 2003, dated 2014).

T1 sequence (Q16769 29-361): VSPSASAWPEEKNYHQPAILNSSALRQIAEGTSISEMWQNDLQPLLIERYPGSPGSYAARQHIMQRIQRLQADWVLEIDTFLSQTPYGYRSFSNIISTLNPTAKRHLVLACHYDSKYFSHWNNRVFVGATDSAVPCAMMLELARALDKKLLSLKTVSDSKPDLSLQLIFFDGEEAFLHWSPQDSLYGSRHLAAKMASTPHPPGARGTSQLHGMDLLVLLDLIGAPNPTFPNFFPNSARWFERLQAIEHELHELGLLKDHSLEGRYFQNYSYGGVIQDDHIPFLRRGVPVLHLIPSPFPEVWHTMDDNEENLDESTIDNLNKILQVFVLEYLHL
Sequence of mammalian QC (Q28120 29-361): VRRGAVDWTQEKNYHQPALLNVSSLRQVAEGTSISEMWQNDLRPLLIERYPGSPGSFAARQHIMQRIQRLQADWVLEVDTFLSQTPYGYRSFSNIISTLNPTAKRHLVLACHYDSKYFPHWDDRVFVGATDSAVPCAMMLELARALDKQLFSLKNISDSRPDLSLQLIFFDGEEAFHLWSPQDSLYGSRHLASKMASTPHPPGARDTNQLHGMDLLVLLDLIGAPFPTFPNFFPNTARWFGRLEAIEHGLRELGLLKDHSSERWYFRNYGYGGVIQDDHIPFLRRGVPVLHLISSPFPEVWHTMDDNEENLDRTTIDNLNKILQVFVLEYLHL

As to “H-Gln(NMe)-Phe-Lys-Ala-Glu-NH2 ({Gln(NMe)}-FKAE-NH2)”, the “conversion by human QC” value in assay [1] is listed as “No substrate conversion was observed”. In addition, the “inhibition of human QC” value in assay [2] is “not detected”.
For the molecule phenylimidazole, the “inhibition of human QC” value in assay [2] is “inactive under the experimental conditions”.
For reduced 6-methylpterin, the “inhibition of mammalian QC” value in assay [3] was “Inhibition”.
On to `c1c[nH]cn1` [imidazole], for which the “inhibition of human QC” value in assay [4] was “inhibited”.
Usually kcat stands for the maximal rate divided by the concentration of active sites. `NC(=O)CC[C@H](N)C(=O)N[C@@H](CCC(=O)O)C(=O)O` [H-Gln-Glu-OH] (H-Gln-Glu-OH): in assay [5] (Human QC), the turnover number (kcat) worked out at 24.7 ± 0.2 s⁻¹ and the “Ki* (mM)” value is on record as “n.i”. In addition, in assay [5] (setting [7]), the “Ki (mM)” value is given as “n.i” and the “kcat” value is 21.4 ± 0.3 s⁻¹. Besides, in assay [5] (setting [8]), the “Ki (mM)” value was “n.i” and the “kcat” value came to 18.9 ± 0.5 s⁻¹.
As usually defined, the Ki is the equilibrium dissociation constant of an inhibitor or competing ligand from its target. In assay [2], `COc1ccc(NC(=S)NCCCn2ccnc2)cc1` [Example 11, 1-(3-(1H-imidazol-1-yl)propyl)-3-(4-methoxyphenyl)thiourea] had an inhibitory constant (Ki) of 0.7 µM.
With `O=C(NCCCn1ccnc1)Nc1cc(F)cc2c1OCOC2` [Example 97], in assay [2] (residual QC activity with inhibitor), the “Res. Act. (%)” value was 19.0%.
For the molecule `NC(=O)CC[C@H](NC(=O)[C@@H](N)CCC(N)=O)C(=O)O` [H-Gln-Gln-OH] (H-Gln-Gln-OH), in assay [5] (Human QC), the “kcat” value was 20.7 ± 0.2 s⁻¹ and the “Ki* (mM)” value was “n.i”.
Take EFRHDSGYEVHHQKLVFFA-NH2 [Aβ3-21a]: the “glutamate-containing peptide as QC-substrate” value in assay [6] is “can also serve as QC-substrates”.
Broadly, the Km is the concentration of substrate that gives half-maximal velocity. In the case of QFRHDSGYE-NH2 [[Gln^3]Aβ3-11a], in assay [5] (setting [9]), the Michaelis-Menten constant (Km) is 87 ± 3 µM and the “kcat (s^−1)” value is 55 ± 1^# s^−1. In assay [5] (setting [10]), the Km is 155 ± 4 µM and the “kcat” value amounted to 41.4 ± 0.4 s⁻¹.
Regarding H-QAAAA-NH2 [H-Gln-Ala-Ala-Ala-Ala-NH2], in assay [5] (Human QC), the “kcat” value was found to be 60.5 ± 0.7 s⁻¹.
Turning to [Gln^3]-glucagon (3-29): QC substrate, the “substrate conversion, determined qualitatively” value in assay [1] was “*”. Also, in assay [5] (setting [10]), the Km amounted to 19 ± 1 µM and the “kcat” value was 10.0 ± 0.2 s⁻¹.
In the case of `O=C(O)CN(CCN(CC(=O)O)CC(=O)O)CC(=O)O` [EDTA], the “inhibition of mammalian QC” value in assay [3] was “did not inhibit”.
As for `NCCCn1ccnc1` [1-aminopropyl-imidazole], in assay [2], the “inhibition of human QC” value is reported as “one of the less effective compounds of this group”.
On the same count and under the same terms, then `c1ccc(Cn2ccnc2)cc1` [1-benzylimidazole], with “one of the most effective QC inhibitors”.
`C[C@H](NC(=O)[C@H](C)NC(=O)[C@@H](N)CCC(N)=O)C(N)=O` [H-Gln-Ala-Ala-NH2] (H-Gln-Ala-Ala-NH2): in assay [5] (Human QC), the “kcat” value is 76.3 ± 0.7 s⁻¹.
On to “H-EFKRLA-NH2 [H-Glu-Phe-Lys-Arg-Leu-Ala-NH2]”, for which the “inhibition of human QC” value in assay [2] was “not inhibited”.
As to `Cn1cncc1CCN` [3-methyl-4-histamine], in assay [2], the “inhibition of human QC” value is recorded as “considerable improvement of efficacy”.
Take `CCOc1ccc(NC(=S)NCCCn2ccnc2)cc1` [Example 27, 1-(3-(1H-imidazol-1-yl)propyl)-3-(4-ethoxyphenyl)thiourea]: the Ki in assay [2] worked out at 0.89 µM.
On to `Cn1ccnc1` [1-methylimidazole], for which the “inhibition of human QC” value in assay [2] is “improved binding to the active site”.
The molecule `S=C(NCCCn1ccnc1)NCc1ccc2c(c1)OCO2` [Example 47] showed a Ki in assay [2] of 6.1 µM.
On to `COC(=O)CC[C@H](N)C(=O)Nc1ccc2ccccc2c1` [H-Glu(OMe)-βNA], for which the “conversion by human QC” value in assay [1] is recorded as “None of these compounds were converted”.
For “H-Gln-cyclo(Nε-Lys-Arg-Pro-Ala-Gly-Phe) (H-QKRPAGF; lactam 2-C; SMILES C[C@@H]1NC(=O)[C@@H]2CCCN2C(=O)[C@H](CCCNC(=N)N)NC(=O)[C@@H](NC(=O)[C@@H](N)CCC(N)=O)CCCCNC(=O)[C@H](Cc2ccccc2)NC(=O)CNC1=O)”, the “kcat” value in assay [5] (Human QC) is 22.8 ± 0.6 s⁻¹.
As for `NC(=O)CC[C@H](N)C(=O)N[C@@H](Cc1c[nH]cn1)C(=O)N1CCC[C@H]1C(N)=O` [[Gln^1]-TRH] (H-Gln-His-Pro-NH2), in assay [5] (Human QC), the “kcat” value came out at 82.8 ± 1.2 s⁻¹.
`NCCc1c[nH]cn1` [L-Histamine]: the “inhibition of human QC” value in assay [2] is on record as “about one order of magnitude smaller compared to its acetylated counterpart”.
As for `CC(C)C[C@H](NC(=O)[C@H](CCCNC(=N)N)NC(=O)[C@H](CCCCNC(=O)[C@@H](N)CCC(N)=O)NC(=O)[C@@H](N)CCC(N)=O)C(=O)N[C@@H](C)C(N)=O` [H-Gln-Lys(Gln)-Arg-Leu-Ala-NH2] (H-QK(Gln)RLA-NH2), in assay [1], the “conversion by human QC” value was “converted”.
On to `COC(=O)CC[C@H](N)C(=O)N[C@@H](Cc1ccccc1)C(=O)N[C@@H](CCCCN)C(=O)N[C@@H](CCCNC(=N)N)C(=O)N[C@@H](CC(C)C)C(=O)N[C@@H](C)C(N)=O` [H-Glu(OMe)-Phe-Lys-Arg-Leu-Ala-NH2] (H-E(OMe)FKRLA-NH2), for which the “inhibition of human QC” value in assay [2] was “not inhibited”.
`C[C@H](NC(=O)[C@@H](N)CCC(N)=O)C(N)=O` [H-Gln-Ala-NH2] (H-Gln-Ala-NH2): the “kcat” value in assay [5] (Human QC) is 40.1 ± 0.9 s⁻¹.
For the molecule `NC(=O)CC[C@H](N)C(=O)O` [H-Gln-OH], the “conversion by human QC” value in assay [1] was “no reactivity”. Besides, in assay [5] (Human QC), the “KM (μM)” value is recorded as “n.r” and the “kcat (s^−1)” value is given as “n.r”.
`Cc1nc2ccccc2[nH]1` [2-methyl-benzimidazole]: the “inhibition of human QC” value in assay [2] was “the inhibition constant drops about one order of magnitude”.
The same measure, in the same setting: then `C=Cn1ccnc1` [1-vinylimidazole], with “improved binding to the active site”.
Still for that read-out and setting: then `O=C(c1ccccc1)n1ccnc1` [1-benzoylimidazole], with “loss of inhibitory quality”.
Turning to EFRHDSGYE-NH2 [Aβ3-11a], in assay [6], the “glutamate-containing peptide as QC-substrate” value is “can also serve as QC-substrates”.
With `NC(=O)CC[C@H](N)C(=O)N[C@@H](CCC(=O)O)C(=O)N1CCC[C@H]1C(N)=O` [[Gln^1]-FPP] (H-Gln-Glu-Pro-NH2), the “kcat” value in assay [5] (Human QC) turned out to be 69.6 ± 0.3 s⁻¹.
With `N#CN=C(NCCCn1ccnc1)NCc1ccc2c(c1)OCO2` [Example 81], affinity in assay [2] was put at a Ki of 1.53 µM.
`NC(=O)CC[C@H](N)C(N)=O` [H-Gln-NH2]: the “conversion by human QC” value in assay [1] is on record as “converted glutaminamide to products readily”. Further, in assay [5] (Human QC), the “kcat” value was 12.8 ± 0.5 s⁻¹ and the “Ki* (mM)” value was “n.i”. Besides, in assay [5] (setting [7]), the “Ki (mM)” value is reported as “n.i” and the “kcat” value worked out at 12.8 ± 0.3 s⁻¹. Also, in assay [5] (setting [8]), the “Ki (mM)” value is reported as “n.i” and the “kcat” value is 12.2 ± 0.1 s⁻¹.
Take `CC(C)(C)OC(=O)C(N)CCC(N)=O` (stereo not drawn) [H-Gln-OtBu]: in assay [5] (Human QC), the “kcat” value was found to be 6.7 ± 0.2 s⁻¹ and the “Ki* (mM)” value is “n.i”.
On to “[Gln^5]-substance P (5-11): QC substrate (QQFFGLM; ends and bridges not checked)”, for which the “substrate conversion, determined qualitatively” value in assay [1] is given as “*”.
As to `NC(=O)CC[C@H](N)C(=O)N[C@@H](Cc1ccc(O)cc1)C(=O)O` [H-Gln-Tyr-OH] (H-Gln-Tyr-OH), in assay [5] (Human QC), the “kcat” value came to 94 ± 1 s⁻¹ and the “Ki* (mM)” value was “n.i”.
The like results for `CC(C)[C@H](NC(=O)[C@@H](N)CCC(N)=O)C(=O)O` [H-Gln-Val-OH] (H-Gln-Val-OH) were, in that order, 17.2 ± 0.1 s⁻¹ and “n.i”.
Consider “H-QAASAA-NH2 [H-Gln-Ala-Ala-Ser-Ala-Ala-NH2]”, for which, in assay [5] (Human QC), the “kcat” value turned out to be 55.3 ± 1.6 s⁻¹.
`Cc1cc(=O)oc2cc(NC(=O)[C@@H](N)CCC(N)=O)ccc12` [H-Gln-AMC]: in assay [5] (Human QC), the “kcat” value was determined as 5.3 ± 0.1 s⁻¹.
For the molecule `C[C@H](NC(=O)[C@@H](N)CCC(N)=O)C(=O)O` [H-Gln-Ala-OH] (H-Gln-Ala-OH), in assay [5] (Human QC), the “kcat” value worked out at 57.2 ± 0.4 s⁻¹ and the “Ki* (mM)” value was “n.i”. Besides, in assay [5] (setting [7]), the “Ki (mM)” value is on record as “n.i” and the “kcat” value was 54.4 ± 0.5 s⁻¹. Further, in assay [5] (setting [8]), the “Ki (mM)” value is given as “n.i” and the “kcat” value turned out to be 47.6 ± 0.6 s⁻¹.
Take “QFRHDSGYEVHHQKLVFFA-NH2 [[Gln^3]Aβ3-21a]”: in assay [5] (setting [10]), the “kcat” value is 62 ± 3 s⁻¹.
